From ChEMBL document CHEMBL1147543, “Styrylheterocycles as a novel class inhibitor of cyclooxygenase-2-mediated prostaglandin E(2) production” (Bioorg Med Chem Lett, 2004)
pIC50: −log10 of the molar value.

Test system: RAW264.7
Test: Inhibitory effect on PGE-2 production in LPS-stimulated RAW264.7 cells
Type: functional, cell-based
Settings: Mus musculus

Structure (SMILES)	pIC50
COc1cc(/C=C/c2cc(OC)cc(OC)c2)cc(OC)c1	< 4.48
COc1cc(/C=C/c2cc(OC)c(OC)cc2OC)cc(OC)c1	5.13
Oc1ccc(/C=C/c2cc(O)cc(O)c2)cc1 [RESVERATROL]	5.40
